In ChEMBL document CHEMBL6103589, “Synthesis and evaluation of novel ebselen derivatives as urease inhibitors for combating Helicobacter pylori infections” (Eur J Med Chem, 2025):
In brackets after ≈: the same amount, converted by molar mass. Activity calls are given as the source filed them. No cut-off for these calls is given here.

Experiments:
[1] = molecular target: Urease subunit alpha/Urease subunit beta (Helicobacter pylori (strain ATCC 700392 / 26695) (Campylobacterpylori), UniProt P69996); test: Inhibition of Helicobacter pylori ATCC 43504 urease preincubated for 75 mins followed by urea addition and measured after 30 mins by ELISA; assay type: protein-complex assay
Urease subunit alpha/Urease subunit beta, sequence (P69996 whole entry): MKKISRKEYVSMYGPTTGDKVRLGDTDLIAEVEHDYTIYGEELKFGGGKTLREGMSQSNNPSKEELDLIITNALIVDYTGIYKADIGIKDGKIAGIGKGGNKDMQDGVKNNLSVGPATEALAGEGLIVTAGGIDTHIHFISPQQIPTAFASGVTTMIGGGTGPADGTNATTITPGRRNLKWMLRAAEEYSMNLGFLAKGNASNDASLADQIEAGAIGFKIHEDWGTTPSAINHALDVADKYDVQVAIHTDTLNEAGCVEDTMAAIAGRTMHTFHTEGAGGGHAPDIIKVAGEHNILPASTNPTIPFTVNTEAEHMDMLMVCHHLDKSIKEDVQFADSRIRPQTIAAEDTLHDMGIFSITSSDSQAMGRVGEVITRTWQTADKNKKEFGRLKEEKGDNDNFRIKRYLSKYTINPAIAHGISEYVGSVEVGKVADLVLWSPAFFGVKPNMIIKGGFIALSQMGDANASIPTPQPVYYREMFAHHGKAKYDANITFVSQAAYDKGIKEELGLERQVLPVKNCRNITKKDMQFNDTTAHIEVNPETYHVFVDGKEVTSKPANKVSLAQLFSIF
Urease subunit alpha/Urease subunit beta, sequence (P14916 whole entry, further chain): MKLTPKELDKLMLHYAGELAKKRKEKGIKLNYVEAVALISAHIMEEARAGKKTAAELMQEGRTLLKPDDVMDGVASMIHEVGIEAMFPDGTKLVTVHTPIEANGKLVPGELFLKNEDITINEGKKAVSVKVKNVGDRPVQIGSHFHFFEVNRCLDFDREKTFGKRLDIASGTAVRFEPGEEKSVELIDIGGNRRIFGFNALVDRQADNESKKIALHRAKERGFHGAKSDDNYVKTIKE

[2] = system: Helicobacter pylori; test: Antibacterial activity against Helicobacter pylori ATCC 43504 incubated for 24 hrs by broth dilution method; assay type: functional; settings: dose 1-64 […]
[3] = system: Helicobacter pylori; test: Protection against Helicobacter pylori ATCC 43504 infected (MOI 400:1) in human GES1 cell injury model assessed as reduction in cell apoptosis rate at 25 uM pre-treated for 2 hrs followed by bacterial infection measured after 6 hrs by Annexin/V-FITC staining based flow cytometry analysis (reference value: 56.03%); assay type: functional; set-up: scale not given: the % may be the effect or the level left; settings: time 8 hrs
[4] = system: Helicobacter pylori; test: Protection against Helicobacter pylori ATCC 43504 infected (MOI 25:1) in human GES1 cell injury model assessed as early apoptotic cells at 25 uM pre-treated for 2 hrs followed by bacterial infection measured after 6 hrs by Annexin/V-FITC staining based flow cytometry analysis (reference value: 9.89%); assay type: functional; settings: time 8 hrs
[5] = system: Helicobacter pylori; test: Protection against Helicobacter pylori ATCC 43504 infected (MOI 25:1) in human GES1 cell injury model assessed as early apoptotic cells at 50 uM pre-treated for 2 hrs followed by bacterial infection measured after 6 hrs by Annexin/V-FITC staining based flow cytometry analysis (reference value: 9.89%); assay type: functional; settings: time 8 hrs
[6] = system: Helicobacter pylori; test: Protection against Helicobacter pylori ATCC 43504 infected (MOI 25:1) in human GES1 cell injury model assessed as late apoptotic cells at 50 uM pre-treated for 2 hrs measured after 6 hrs by Annexin/V-FITC staining based flow cytometry analysis (reference value: 0.31%); assay type: functional; settings: time 8 hrs
[7] = system: Helicobacter pylori; test: Protection against Helicobacter pylori ATCC 43504 infected (MOI 50:1) in human GES1 cell injury model assessed as early apoptotic cells at 50 uM pre-treated for 2 hrs followed by bacterial infection measured after 6 hrs by Annexin/V-FITC staining based flow cytometry analysis (reference value: 13.16 %); assay type: functional; settings: time 8 hrs
[8] = system: Helicobacter pylori; test: Protection against Helicobacter pylori ATCC 43504 infected (MOI 100:1) in human GES1 cell injury model assessed as necrotic cells at 25 uM pre-treated for 2 hrs followed by bacterial infection measured after 6 hrs by Annexin/V-FITC staining based flow cytometry analysis (reference value: 2.82%); assay type: functional; settings: time 8 hrs
[9] = system: Helicobacter pylori; test: Protection against Helicobacter pylori ATCC 43504 infected (MOI 100:1) in human GES1 cell injury model assessed as viable cells at 50 uM pre-treated for 2 hrs followed by bacterial infection measured after 6 hrs by Annexin/V-FITC staining based flow cytometry analysis (reference value: 68.36%); assay type: functional; settings: time 8 hrs
[10] = system: Helicobacter pylori; test: Protection against Helicobacter pylori ATCC 43504 infected (MOI 100:1) in human GES1 cell injury model assessed as early apoptotic cells at 50 uM pre-treated for 2 hrs followed by bacterial infection measured after 6 hrs by Annexin/V-FITC staining based flow cytometry analysis (reference value: 24.66 %); assay type: functional; settings: time 8 hrs
[11] = system: Helicobacter pylori; test: Protection against Helicobacter pylori ATCC 43504 infected (MOI 100:1) in human GES1 cell injury model assessed as necrotic cells at 50 uM pre-treated for 2 hrs followed by bacterial infection measured after 6 hrs by Annexin/V-FITC staining based flow cytometry analysis (reference value: 2.82%); assay type: functional; settings: time 8 hrs
[12] = system: Helicobacter pylori; test: Protection against Helicobacter pylori ATCC 43504 infected (MOI 200:1) in human GES1 cell injury model assessed as viable cells at 25 uM pre-treated for 2 hrs followed by bacterial infection measured after 6 hrs by Annexin/V-FITC staining based flow cytometry analysis (reference value: 57.87%); assay type: functional; settings: time 8 hrs
[13] = system: Helicobacter pylori; test: Protection against Helicobacter pylori ATCC 43504 infected (MOI 200:1) in human GES1 cell injury model assessed as early apoptotic cells at 25 uM pre-treated for 2 hrs followed by bacterial infection measured after 6 hrs by Annexin/V-FITC staining based flow cytometry analysis (reference value: 31.93 %); assay type: functional; settings: time 8 hrs
[14] = system: Helicobacter pylori; test: Protection against Helicobacter pylori ATCC 43504 infected (MOI 200:1) in human GES1 cell injury model assessed as late apoptotic cells at 25 uM pre-treated for 2 hrs followed by bacterial infection measured after 6 hrs by Annexin/V-FITC staining based flow cytometry analysis (reference value: 6.28%); assay type: functional; settings: time 8 hrs
[15] = system: Helicobacter pylori; test: Protection against Helicobacter pylori ATCC 43504 infected (MOI 200:1) in human GES1 cell injury model assessed as early apoptotic cells at 50 uM pre-treated for 2 hrs followed by bacterial infection measured after 6 hrs by Annexin/V-FITC staining based flow cytometry analysis (reference value: 31.93 %); assay type: functional; settings: time 8 hrs
[16] = system: Helicobacter pylori; test: Protection against Helicobacter pylori ATCC 43504 infected (MOI 200:1) in human GES1 cell injury model assessed as late apoptotic cells at 50 uM pre-treated for 2 hrs followed by bacterial infection measured after 6 hrs by Annexin/V-FITC staining based flow cytometry analysis (reference value: 6.28%); assay type: functional; settings: time 8 hrs
[17] = system: Helicobacter pylori; test: Protection against Helicobacter pylori ATCC 43504 infected (MOI 300:1) in human GES1 cell injury model assessed as late apoptotic cells at 50 uM pre-treated for 2 hrs followed by bacterial infection measured after 6 hrs by Annexin/V-FITC staining based flow cytometry analysis (reference value: 11.95%); assay type: functional; settings: time 8 hrs
[18] = system: GES1; test: Induction of DNA damage in human GES1 cells infected (25 to 400:1 MOI) with Helicobacter pylori ATCC 43504 assessed as decrease in gammaH2AX levels at 50 uM by SP8 laser confocal microscopic analysis; assay type: functional, cell-based; settings: time 20.0 min
[19] = Stability of the compound in simulated gastric fluid; assay type: physicochemical; settings: simulated gi fluid
[20] = system: Helicobacter pylori; test: In vivo protection against Helicobacter pylori ATCC 43504 infected in BALB/c mouse gastric mucosa model assessed as reduction in hyperplasia at 25 mg/kg administered once a day for 2 weeks by HE staining based analysis; assay type: functional, organism-based
[21] = system: Helicobacter pylori; test: In vivo protection against Helicobacter pylori ATCC 43504 infected in BALB/c mouse gastric mucosa model assessed as appearance of intact muscularis mucosa at high dose administered once a day for 2 weeks by HE staining based analysis; assay type: functional, organism-based
[22] = system: Helicobacter pylori; test: In vivo protection against Helicobacter pylori ATCC 43504 infected in BALB/c mouse gastric mucosa model assessed as effect on infiltration at high dose administered once a day for 2 weeks by HE staining based analysis; assay type: functional, organism-based
[23] = system: Helicobacter pylori; test: In vivo protection against Helicobacter pylori ATCC 43504 infected in BALB/c mouse gastric mucosa model assessed as effect on bleeding at high dose administered once a day for 2 weeks by HE staining based analysis; assay type: functional, organism-based
[24] = Acute toxicity in BALB/c mouse assessed as change in daily behaviour at 1 g/Kg, po single dose administered for 7 days; assay type: organism-based; settings: in vivo, 1000 mg/kg, 168 h, time 7 day
[25] = Acute toxicity in BALB/c mouse assessed as change in body weight at 1 g/Kg, po single dose administered for 7 days; assay type: organism-based; settings: in vivo, 1000 mg/kg, 168 h, time 7 day
[26] = Acute toxicity in BALB/c mouse assessed as change in stool color at 1 g/Kg, po single dose administered for 7 days; assay type: organism-based; settings: in vivo, 1000 mg/kg, 168 h, time 7 day
[27] = Acute toxicity in BALB/c mouse assessed as pathological abnormality in lungs at 1 g/Kg, po single dose administered for 7 days by HE staining based analysis; assay type: organism-based; settings: in vivo, 1000 mg/kg, 168 h, time 7 day

## O=C(Oc1n[se]c2ccccc12)c1cccc(F)c1
[1]
  IC50: 140 nM
[2]
  Activity: Dose-dependent-effect
  MIC: 8 µg/mL (≈ 25 µM)
[3]
  Activity: 38.48%
[4]
  Activity: 1.51%
[5]
  Activity: 0.51%
[6]
  Activity: 0%
[7]
  Activity: 2.91%
[8]
  Activity: 0.43%
[9]
  Activity: 96.82%
[10]
  Activity: 2.79%
[11]
  Activity: 0.16%
[12]
  Activity: 87.8%
[13]
  Activity: 12.06%
[14]
  Activity: 0.02%
[15]
  Activity: 4.38%
[16]
  Activity: 0.21%
[17]
  Activity: 2.53%
[18]
  Activity: Active
[19]
  Stability: Stable
[20]
  Activity: Active
[21]
  Activity: Active
[22]
  Activity: Active
[23]
  Activity: inactive
[24]
  Activity: Non-toxic
[25]
  Activity: Non-toxic
[26]
  Activity: Non-toxic
[27]
  Activity: Non-toxic
